Molecules are shown by their SMILES. Converted amounts (≈) assume the structure as drawn.

Format in all cases: cell-based
The test system of one assay is gram positive bacteria. Put plainly: MIC by broth microdilution (NCCLS), with or without 30% bovine serum (Table 42). As for the experimental part:
(§1) Before dissolution, each sample was analyzed by HPLC and quantified.
(§2) The microorganisms used were reference strains obtained from the American Type Culture Collection (ATCC) (Rockville, Md.), SmithKline and French Laboratories (SKF), and the Upjohn Company (UC) (Kalamazoo, Mich.).
(§3) MICs were determined by the broth microdilution methodology following the standard NCCLS procedure (NCCLS Document M7-A6, Vol. 23, No. 2, “Methods for dilution antimicrobial susceptibility tests for bacteria that grow aerobically.” Approved Guideline. January 2003, which can be herein incorporated by reference in its entirety), with or without 30% adult bovine serum (BS) (PAA Laboratories GMBH, Haidmannweg Pasching Austria), using bacterial innocula at approximately 5×10^5 CFU/ml. The media employed included cation-adjusted Müller Hinton broth (Difco Laboratories, Detroit, Mich.) that was used that was adjusted with CaCl2 and MgCl2 to a final concentration of 20 mg/L and 10 mg/L, respectively. Tests were read following 20-24 hours of incubation at 35° C.
For orientation: In broth dilution the organism is exposed to a series of concentrations in liquid medium.

A further assay concerns gram-negative bacteria. The experiment in a line: MIC by broth microdilution (NCCLS) (Table 42). As for the experimental part: as §1, §2, §3
The subject of assay [1] is Candida albicans SKF 2270. The experiment in a line: MIC by broth microdilution (NCCLS) (Tables 42, 44).
For assay [2], the system named is Escherichia coli, Proteus vulgaris, Pseudomonas aeruginosas. Put plainly: MIC by broth microdilution (NCCLS) of IsoB0 and reference compounds (Table 44), non-gram-positive bacterial strains. As for the experimental part: (§4) MICs were determined by the broth microdilution methodology following the standard NCCLS procedure, with or without 30% bovine serum, using bacterial inocula of approximately 5×10^5 CFU/mL. Tests were read after 20-24 h incubation at 35° C.

Assay [3] deals with panel of gram-positive bacteria. Put plainly: MIC by broth microdilution (NCCLS) of IsoB0 and reference compounds (Table 44). As for the experimental part: Müller Hinton broth (Difco Laboratories, Detroit, Mich., USA) adjusted with CaCl2 and MgCl2 to a final concentrations of 20 mg/L and 10 mg/L respectively.
The microorganisms used are reference standard strains from the American Type Culture Collection (ATCC, Rockville, USA), Smith Kline and French Laboratories (SKF) and the Upjohn Company (UC, Kalamazoo, Mich., USA).
as §4

The mark [4] stands for this setting: E. faecalis ATCC29212 ref. strain.
Setting [5] is: Enterococcus faecalis ATCC 7080.
Where [6] appears, read: S. aureus ATCC 29213 ref. strain.
Setting [7] is: Staphylococcus aureus Smith ATCC 19636.
Where [8] appears, read: Streptococcus pyrogenes SKF 13400.
[9] abbreviates: Pseudomonas aeruginosas ATCC 10145.
Setting [10] is: Candida albicans SKF 2270 (Table 42).
Where [11] appears, read: Streptococcus pyogenes SKF13400.
Setting [12] is: Candida albicans SKF2270 (Table 44).

As for `CCCCCCCCCCCC(=O)N[C@H]1[C@H](Oc2c3cc4cc2Oc2ccc(cc2Cl)[C@@H](O)[C@@H]2NC(=O)[C@H](NC(=O)[C@@H]4NC(=O)[C@H]4NC(=O)[C@@H](Cc5ccc(cc5)O3)NC(=O)[C@H](NC)c3ccc(O)c(c3)Oc3cc(O)c(Cl)c4c3)c3ccc(O)c(c3)-c3c(O[C@H]4O[C@H](CO)[C@@H](O)[C@H](O)[C@@H]4O)cc(O)cc3[C@@H](C(=O)NCCCN(C)C)NC2=O)O[C@H](C(=O)O)[C@@H](O)[C@@H]1O` [Composition B1], the MIC – broadly, the smallest concentration in the dilution series that meets the test's criterion for growth inhibition – was “≦0.06 mg/L” with gram positive bacteria (Bacillus subtilis ATCC 6633); 0.125 µg/mL (≈ 0.0688 µM) with gram positive bacteria (setting [4]); 0.125 µg/mL (≈ 0.0688 µM) with gram positive bacteria (setting [5]); 0.125 µg/mL (≈ 0.0688 µM) in the assay on gram positive bacteria (setting [6]); 2 µg/mL in the assay with gram positive bacteria (S. aureus Smith + 30% BS); “≦0.06 mg/L” against gram positive bacteria (S. epidermidis ATCC 12228). Moreover, the MIC result in the assay with gram positive bacteria (S. pneumoniae Felton UC41) was “≦0.06 mg/L”; against gram positive bacteria (setting [7]) it was 0.125 µg/mL (≈ 0.0688 µM); against gram positive bacteria (setting [8]), “≦0.06 mg/L”; with gram-negative bacteria (E. coli ATCC25922 ref. strain), more than 64 µg/mL; against gram-negative bacteria (Escherichia coli SKF 12140), more than 64 µg/mL; with gram-negative bacteria (Proteus vulgaris ATCC 881), more than 64 µg/mL. Also, the MIC (against gram-negative bacteria (setting [9]); in assay [1] (setting [10])) was more than 64 µg/mL throughout.
Turning to `CC1(C)S[C@@H]2[C@H](NC(=O)Cc3ccccc3)C(=O)N2[C@H]1C(=O)O` [Pen. G], the MIC in assay [2] (E. coli ATCC25922 ref. strain) was more than 32 µg/mL; in assay [2] (Escherichia coli SKF 12140), more than 32 µg/mL; in assay [2] (Proteus vulgaris ATCC 881) it was more than 32 µg/mL; in assay [2] (setting [9]), more than 32 µg/mL; in assay [3] (Bacillus subtilis ATCC 6633), “≦0.03 mg/L”; in assay [3] (setting [4]) it was 4 µg/mL (≈ 12 µM). In addition, the MIC was 32 µg/mL (≈ 95.7 µM) in assay [3] (setting [5]); 8 µg/mL (≈ 23.9 µM) in assay [3] (setting [6]); 0.06 µg/mL in assay [3] (S. aureus Smith + 30% BS); more than 32 µg/mL in assay [3] (S. epidermidis ATCC 12228); “≦0.03 mg/L” in assay [3] (S. pneumoniae Felton UC41); 0.06 µg/mL (≈ 0.179 µM) in assay [3] (setting [7]). For the same compound, the figures for the MIC entry in assay [3] (setting [11]) and in assay [1] (setting [12]) were “≦0.03 mg/L” and more than 32 µg/mL, respectively.
With `C[C@@H]1[C@H](O)[C@@H](C)/C=C/C=C/C=C/C=C/C=C/C=C/C=C/[C@H](O[C@@H]2O[C@H](C)[C@@H](O)[C@H](N)[C@@H]2O)C[C@@H]2O[C@](O)(C[C@@H](O)C[C@@H](O)[C@H](O)CC[C@@H](O)C[C@@H](O)CC(=O)O[C@H]1C)C[C@H](O)[C@H]2C(=O)O` [Amph. B], the MIC in assay [2] (E. coli ATCC25922 ref. strain), in assay [2] (Escherichia coli SKF 12140), in assay [2] (Proteus vulgaris ATCC 881), in assay [2] (setting [9]), in assay [3] (Bacillus subtilis ATCC 6633) and in assay [3] (setting [4]) was more than 64 µg/mL throughout. The MIC in assay [3] (setting [5]), in assay [3] (setting [6]), in assay [3] (S. aureus Smith + 30% BS), in assay [3] (S. epidermidis ATCC 12228), in assay [3] (S. pneumoniae Felton UC41) and in assay [3] (setting [7]) was more than 64 µg/mL in each case. Also, the MIC in assay [3] (setting [11]) came to 32 µg/mL (≈ 34.6 µM); in assay [1] (setting [12]), 0.125 µg/mL (≈ 0.135 µM).
On to `CN[C@H]1C(=O)N[C@@H]2Cc3ccc(cc3)Oc3cc4cc(c3O[C@@H]3O[C@H](C(=O)O)[C@@H](O)[C@H](O)[C@H]3NC(=O)CCCCCCCCC(C)C)Oc3ccc(cc3Cl)[C@@H](O)[C@@H]3NC(=O)[C@H](NC(=O)[C@@H]4NC(=O)[C@H](NC2=O)c2cc(cc(O)c2Cl)Oc2cc1ccc2O)c1ccc(O)c(c1)-c1c(O[C@H]2O[C@H](CO)[C@@H](O)[C@H](O)[C@@H]2O)cc(O)cc1[C@@H](C(=O)NCCCN(C)C)NC3=O` [isoB0], for which the MIC in assay [2] (E. coli ATCC25922 ref. strain) was 64 µg/mL (≈ 35.2 µM); in assay [2] (Escherichia coli SKF 12140) it was 64 µg/mL (≈ 35.2 µM); in assay [2] (Proteus vulgaris ATCC 881) it was more than 64 µg/mL; in assay [2] (setting [9]) it was more than 64 µg/mL; in assay [3] (Bacillus subtilis ATCC 6633), “≦0.06 mg/L”; in assay [3] (setting [4]), 0.25 µg/mL (≈ 0.138 µM). Besides, the MIC in assay [3] (setting [5]) was found to be 0.25 µg/mL (≈ 0.138 µM); in assay [3] (setting [6]) it was 0.25 µg/mL (≈ 0.138 µM); in assay [3] (S. aureus Smith + 30% BS), 16 µg/mL; in assay [3] (S. epidermidis ATCC 12228), 0.125 µg/mL (≈ 0.0688 µM); in assay [3] (S. pneumoniae Felton UC41), 0.125 µg/mL (≈ 0.0688 µM); in assay [3] (setting [7]) it was 0.5 µg/mL (≈ 0.275 µM). Moreover, the MIC is 0.06 µg/mL (≈ 0.033 µM) in assay [3] (setting [11]) and more than 64 µg/mL in assay [1] (setting [12]). In addition, the “activity against a panel of gram-positive bacteria” value in assay [3] is “very similar to dalbavancin”.
Turning to `CN[C@H]1C(=O)N[C@@H]2Cc3ccc(cc3)Oc3cc4cc(c3O[C@@H]3O[C@H](C(=O)O)[C@@H](O)[C@H](O)[C@H]3NC(=O)CCCCCCCCC(C)C)Oc3ccc(cc3Cl)[C@@H](O)[C@@H]3NC(=O)[C@H](NC(=O)[C@@H]4NC(=O)[C@@H](NC2=O)c2cc(cc(O)c2Cl)Oc2cc1ccc2O)c1ccc(O)c(c1)-c1c(O[C@H]2O[C@H](CO)[C@@H](O)[C@H](O)[C@@H]2O)cc(O)cc1[C@@H](C(=O)NCCCN(C)C)NC3=O` [Composition B0, ristomycin A aglycone, 5,31-dichloro-38-de(methoxycarbonyl)-7-demethyl-19-deoxy-56-O-(2-deoxy-2-((10-methyl-1-oxoundecyl)amino)-beta-D-glucopyranuronosyl)-38-(((3-(dimethylamino)propyl)amino)-carbonyl)-42-O-alpha-D-mannopyranosyl-N^15-methyl-], the MIC entry is “≦0.06 mg/L” in the assay on gram positive bacteria (Bacillus subtilis ATCC 6633); 0.125 µg/mL (≈ 0.0688 µM) against gram positive bacteria (setting [4]); 0.125 µg/mL (≈ 0.0688 µM) with gram positive bacteria (setting [5]); 0.125 µg/mL (≈ 0.0688 µM) in the assay with gram positive bacteria (setting [6]); 2 µg/mL in the assay with gram positive bacteria (S. aureus Smith + 30% BS); “≦0.06 mg/L” against gram positive bacteria (S. epidermidis ATCC 12228). Further, the MIC entry was “≦0.06 mg/L” in the assay on gram positive bacteria (S. pneumoniae Felton UC41); 0.25 µg/mL (≈ 0.138 µM) with gram positive bacteria (setting [7]); “≦0.06 mg/L” against gram positive bacteria (setting [8]); more than 64 µg/mL against gram-negative bacteria (E. coli ATCC25922 ref. strain); more than 64 µg/mL in the assay on gram-negative bacteria (Escherichia coli SKF 12140); more than 64 µg/mL against gram-negative bacteria (Proteus vulgaris ATCC 881). For the same compound, the MIC (with gram-negative bacteria (setting [9]); in assay [1] (setting [10])) was more than 64 µg/mL in each case.

Values taken from patent US8143212B2 (Vicuron Pharmaceuticals Inc., priority 2002, dated 2012).
